Measurements: ChEMBL document CHEMBL1156514, “Chemical genetics define the roles of p38alpha and p38beta in acute and chronic inflammation” (J Biol Chem, 2007)
The source made the active and inactive calls. The rule behind the calls is not given here.

Experiments:
[1] = test system: Mus musculus; assay: Inhibition of collagen antibody-induced arthritis in p38beta T106M mutant expressing C57BL/6 mouse at 3 mg/kg, po administered daily once 24 hrs after LPS challenge; type: functional, organism-based; design: dose 3 mg/kg
[2] = test system: Mus musculus; assay: Inhibition of collagen antibody-induced arthritis in p38alpha T106M mutant expressing C57BL/6 mouse at 3 mg/kg, po administered daily once 24 hrs after LPS challenge; type: functional, organism-based; design: dose 3 mg/kg
[3] = target: Mitogen-activated protein kinase 14 (Homo sapiens, UniProt Q16539); assay: Inhibition of wild type p38alpha
Chain of Mitogen-activated protein kinase 14 (Homo sapiens, UniProt Q16539) (Q16539 whole entry): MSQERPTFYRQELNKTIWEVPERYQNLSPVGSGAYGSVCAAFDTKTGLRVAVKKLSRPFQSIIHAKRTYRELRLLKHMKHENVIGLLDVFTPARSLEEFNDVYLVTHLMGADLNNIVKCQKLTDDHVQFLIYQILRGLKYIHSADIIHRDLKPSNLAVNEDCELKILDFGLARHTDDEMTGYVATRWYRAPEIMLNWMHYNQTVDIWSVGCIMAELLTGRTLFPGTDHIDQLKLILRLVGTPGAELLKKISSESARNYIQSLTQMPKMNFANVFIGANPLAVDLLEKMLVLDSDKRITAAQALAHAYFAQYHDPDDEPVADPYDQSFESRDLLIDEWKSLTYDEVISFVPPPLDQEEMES

[4] = target: Mitogen-activated protein kinase 14 (Homo sapiens, UniProt Q16539, T106M); assay: Inhibition of p38alpha T106M mutant
Chain of Mitogen-activated protein kinase 14 (Homo sapiens, UniProt Q16539, T106M) (Q16539 2-360 T106M limits assumed): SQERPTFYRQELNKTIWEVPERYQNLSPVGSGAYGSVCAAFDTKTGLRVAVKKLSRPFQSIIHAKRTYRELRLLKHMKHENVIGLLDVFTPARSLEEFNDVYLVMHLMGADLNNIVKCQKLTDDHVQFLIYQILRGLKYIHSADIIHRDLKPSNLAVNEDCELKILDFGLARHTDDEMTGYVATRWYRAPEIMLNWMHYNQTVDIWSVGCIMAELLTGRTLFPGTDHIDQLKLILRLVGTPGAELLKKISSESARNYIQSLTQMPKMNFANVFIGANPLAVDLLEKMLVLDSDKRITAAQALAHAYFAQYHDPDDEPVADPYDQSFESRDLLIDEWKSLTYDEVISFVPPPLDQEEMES

[5] = target: Mitogen-activated protein kinase 11 (Homo sapiens, UniProt Q15759); assay: Inhibition of wild type p38beta
Chain of Mitogen-activated protein kinase 11 (Homo sapiens, UniProt Q15759) (Q15759 whole entry): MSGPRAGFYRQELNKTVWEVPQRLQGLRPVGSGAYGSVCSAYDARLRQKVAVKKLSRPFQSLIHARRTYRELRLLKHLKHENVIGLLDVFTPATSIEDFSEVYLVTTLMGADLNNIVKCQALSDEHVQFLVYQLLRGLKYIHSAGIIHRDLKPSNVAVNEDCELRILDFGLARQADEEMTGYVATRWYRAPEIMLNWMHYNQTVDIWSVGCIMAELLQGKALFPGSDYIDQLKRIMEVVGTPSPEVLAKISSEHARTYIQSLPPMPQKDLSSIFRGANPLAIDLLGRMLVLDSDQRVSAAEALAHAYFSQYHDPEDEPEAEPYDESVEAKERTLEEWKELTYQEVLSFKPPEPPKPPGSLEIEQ

[6] = Inhibition of LPS-stimulated TNFalpha production in p38alpha expressing mouse peritoneal exudates cells by ELISA; type: functional
[7] = Inhibition of LPS-stimulated TNFalpha production in p38alpha T106M mutant expressing mouse peritoneal exudates cells by ELISA; type: functional
[8] = Inhibition of LPS-stimulated TNFalpha production in p38beta T106M mutant expressing mouse peritoneal exudates cells by ELISA; type: functional
[9] = Inhibition of LPS-stimulated TNFalpha production in p38beta deficient mouse peritoneal exudates cells by ELISA; type: functional
[10] = test system: Mus musculus; assay: Inhibition of collagen antibody-induced arthritis in wild type C57BL/6 mouse at 3 mg/kg, po administered daily once 24 hrs after LPS challenge; type: functional, organism-based; design: dose 3 mg/kg
[11] = target: Mitogen-activated protein kinase 11 (Homo sapiens, UniProt Q15759, T106M); assay: Inhibition of p38beta T106M mutant
Chain of Mitogen-activated protein kinase 11 (Homo sapiens, UniProt Q15759, T106M) (Q15759 whole entry T106M): as the sequence (Q15759 whole entry) above, with T106M counted along it

[12] = test system: Mus musculus; assay: Inhibition of LPS-stimulated TNFalpha production in p38alpha T106M mutant expressing C57BL/6 mouse plasma at 3 mg/kg, po after 90 mins by ELISA; type: functional, organism-based; design: dose 3 mg/kg
[13] = test system: Mus musculus; assay: Inhibition of LPS-stimulated TNFalpha production in p38beta T106M mutant expressing C57BL/6 mouse plasma at 3 mg/kg, po after 90 mins by ELISA; type: functional, organism-based; design: dose 3 mg/kg
[14] = test system: Mus musculus; assay: Inhibition of LPS-stimulated TNFalpha production in wild type C57BL/6 mouse plasma at 3 mg/kg, po after 90 mins by ELISA; type: functional, organism-based; design: dose 3 mg/kg
[15] = test system: Mus musculus; assay: Inhibition of LPS-stimulated TNFalpha production in p38beta deficient C57BL/6 mouse plasma at 3 mg/kg, po after 90 mins by ELISA; type: functional, organism-based; design: dose 3 mg/kg

Row | IC50 [3] [nM] | IC50 [4] [nM] | IC50 [5] [nM] | IC50 [6] [nM] | IC50 [7] [nM] | IC50 [8] [nM] | IC50 [9] [nM] | IC50 [11] [nM] | Compound | Activity [1] | Activity [2] | Activity [10] | Activity [12] | Activity [13] | Activity [14] | Activity [15]
1 | 0.08 | 28 | 0.25 | 3.5 | > 250 | 8.3 | 6.8 | 260 | CC(C)(C)N1CCC(c2cc(-c3ccc(F)cc3F)c3ccc(=O)n(-c4c(Cl)cccc4Cl)c3c2)CC1 | Active | inactive | Active | – | – | – | –
2 | – | – | – | – | – | – | – | – | C[C@H](Nc1cc(-c2c(-c3cccc(C(F)(F)F)c3)nc(C3CCNCC3)n2C)ccn1)c1ccccc1 | – | – | – | inactive | Active | Active | Active
